In patent publication US11111247B2, “Pyrazolopyrimidine compounds and uses thereof” (Incyte Corporation, priority 2018, dated 2021):
Like-named read-outs stand apart in the source and are kept apart here.

Key:
FGFR3 (UP) = FGFR3 (UP) (Homo sapiens (Human), UniProt P22607); experiment: FGFR Enzymatic Assay, FGFR3 un-phosphorylated
ALK2 = ALK2 (Homo sapiens (Human), UniProt Q04771); experiment: ALK2 Cellular Assay (phospho SMAD1 HTRF, BMP-7 stimulated HeLa cells); format: cell-based; details: read-out: ALK2 Cellular Assay PSMAD
Method: HeLa cells were cultured in MEM media with 10% FBS. […] HeLa cells were plated in 96 well flat bottomed plate at 50,000 cells per well and incubated overnight. Next day, media was removed and 50 μL of fresh complete media was added. 5 μL compound was added to cells (3 μM final concentration at highest) and incubated for 60 min at 37° C. 200 ng/ml BMP-7 was added and incubated for 30 min at 37° C. After incubation, the media was removed, washed 2×PBS, and proceeded with HTRF kit according to Cisbio HTRF kit instructions for measuring the Phospho SMAD1 (S463/S465). Finally, both the donor and acceptor were added into 384 well plates and incubated at room temperature overnight and the HTRF signal was measured via Pherastar the next day.

FGFR1 (UP) = FGFR1 (UP) (Homo sapiens (Human), UniProt P11362); experiment: FGFR Enzymatic Assay, FGFR1 un-phosphorylated
Method: (§1) The inhibitor potency of the exemplified compounds was determined in an enzyme discontinuous assay that measures peptide phosphorylation using FRET measurements to detect product formation. Inhibitors were serially diluted in DMSO and a volume of 0.2 μL was transferred to the wells of a 384-well plate. For the isoforms of FGFR (−1, −2, −3 wild-type and mutant isoforms, −4) including phosphorylated (P) and un-phosphorylated (UP) proteins, a 5 μL/well volume of enzyme diluted in assay buffer (50 mM HEPES, 10 mM MgCl2, 1 mM EGTA, 0.01% Tween-20, 5 mM DTT, pH 7.5) was added to the plate and pre-incubated with inhibitor for 5 to 15 minutes at ambient temperature. Appropriate controls (enzyme blank and enzyme with no inhibitor) were included on the plate. The reaction was initiated by the addition of a 5 μL/well volume containing both biotinylated [sequence] […] The plate was allowed to equilibrate for −10 minutes at ambient temperature before scanning on a PheraStar plate reader (BMG Labtech) instrument.
(§2) Either GraphPad prism or XLfit was used to analyze the data. The IC50 values were derived by fitting the data to a four parameter logistic equation producing a sigmoidal dose-response curve with a variable Hill coefficient. Prism equation: Y=Bottom+(Top−Bottom)/(1+10^((LogIC50−X)*Hill slope)); XLfit equation: Y=(A+((B−A)/(1+((X/C)^D)))) where X is the logarithm of inhibitor concentration and Y is the response.

ALK2 (aa 147-end) = ALK2 (aa 147-end) (Homo sapiens (Human), UniProt Q04771); experiment: ALK2 HTRF Assay; format: biochemical
Method: The enzymatic assays were conducted in white 384-well polystyrene plates in a final volume of 8 μL. The inhibitors were serially diluted in DMSO and added to the plate wells prior to addition of the other reaction components. The assays were carried out at 25° C. in the assay buffer (50 mM HEPES, pH 7.1, 10% Glycerol, 0.01% Brij50, 10 mM MgCl2, 1 mM EGTA, 5 mM DTT, and 0.01% BSA), containing 50 nM LANCE Ultra ULight™-DNA Topoisomerase 2-alpha peptide (Perkin Elmer TRF0130), and 3 uM, 100 uM or 1 mM ATP (as specified). […] The reaction was read on a PHERAstar FS plate reader (BMG Labtech). IC50 determination was performed by fitting percent control activity versus the log of the inhibitor concentration using the IDBS XLFit and GraphPad Prism 5.0 software.

FGFR2 (P) = FGFR2 (P) (Homo sapiens (Human), UniProt P21802); experiment: FGFR Enzymatic Assay, FGFR2 phosphorylated; details: phosphorylated enzyme, ATP near or below Km
Method: as §1, §2

RT112 cells = experiment: Luminescent Viability Assay (LVA, FGFR3); format: cell-based; details: Homo sapiens, RT-112, 72 h, 3 days, CellTiter-Glo
Method: RT112 cells were purchased from ATCC (Manassas, Va.) and maintained in RPMI, 10% FBS (Gibco/Life Technologies). To measure the effect of test compounds on the viability of cells, the cells were plated with RPMI 10% FBS (5×10^3 cells/well/in 50 μL) into black 96-well Greiner polystyrene in the presence or absence of 50 μl of a concentration range of test compounds. After 3 days, 100 μl of CellTiter-Glo Reagent (Promega) was added. Luminescence was read with a TopCount (PerkinElmer). IC50 determination was performed by fitting the curve of percent inhibition versus the log of the inhibitor concentration using the GraphPad Prism 5.0 software.

[1] = read-out: FGFR3 (UP) IC50, un-phosphorylated enzyme, ATP near or below Km
[2] = read-out: FGFR1 (UP) IC50, un-phosphorylated enzyme, ATP near or below Km
[3] = read-out: ALK2 3 μM IC50, 3 uM ATP
[4] = HeLa cells, 200 ng/ml BMP-7, Phospho SMAD1 (S463/S465) HTRF
[5] = read-out: ALK2 100 μM IC50, 100 uM ATP

Sequence of FGFR2 (P) (P21802 22-821): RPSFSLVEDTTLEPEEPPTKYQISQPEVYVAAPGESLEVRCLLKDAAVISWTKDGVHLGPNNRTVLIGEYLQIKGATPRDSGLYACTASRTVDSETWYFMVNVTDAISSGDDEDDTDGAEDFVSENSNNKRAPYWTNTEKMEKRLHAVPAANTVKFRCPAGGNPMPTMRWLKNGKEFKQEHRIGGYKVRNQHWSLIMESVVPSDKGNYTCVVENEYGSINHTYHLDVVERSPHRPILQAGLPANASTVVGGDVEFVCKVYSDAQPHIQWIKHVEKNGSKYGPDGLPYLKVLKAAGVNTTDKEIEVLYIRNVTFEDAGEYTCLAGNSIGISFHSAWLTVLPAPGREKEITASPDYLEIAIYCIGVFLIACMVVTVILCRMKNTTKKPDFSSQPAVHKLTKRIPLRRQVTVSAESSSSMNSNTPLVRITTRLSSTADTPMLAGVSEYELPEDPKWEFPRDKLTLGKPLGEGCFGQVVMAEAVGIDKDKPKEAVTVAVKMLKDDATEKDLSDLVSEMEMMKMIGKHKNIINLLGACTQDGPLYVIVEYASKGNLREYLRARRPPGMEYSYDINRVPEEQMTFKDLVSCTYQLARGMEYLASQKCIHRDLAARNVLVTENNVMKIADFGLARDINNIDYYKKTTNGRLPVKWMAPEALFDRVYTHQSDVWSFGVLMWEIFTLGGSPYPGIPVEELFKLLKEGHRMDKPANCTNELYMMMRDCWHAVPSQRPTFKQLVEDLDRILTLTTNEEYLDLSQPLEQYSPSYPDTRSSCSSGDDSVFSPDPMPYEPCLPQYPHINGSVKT
Sequence of ALK2 (Q04771 21-509): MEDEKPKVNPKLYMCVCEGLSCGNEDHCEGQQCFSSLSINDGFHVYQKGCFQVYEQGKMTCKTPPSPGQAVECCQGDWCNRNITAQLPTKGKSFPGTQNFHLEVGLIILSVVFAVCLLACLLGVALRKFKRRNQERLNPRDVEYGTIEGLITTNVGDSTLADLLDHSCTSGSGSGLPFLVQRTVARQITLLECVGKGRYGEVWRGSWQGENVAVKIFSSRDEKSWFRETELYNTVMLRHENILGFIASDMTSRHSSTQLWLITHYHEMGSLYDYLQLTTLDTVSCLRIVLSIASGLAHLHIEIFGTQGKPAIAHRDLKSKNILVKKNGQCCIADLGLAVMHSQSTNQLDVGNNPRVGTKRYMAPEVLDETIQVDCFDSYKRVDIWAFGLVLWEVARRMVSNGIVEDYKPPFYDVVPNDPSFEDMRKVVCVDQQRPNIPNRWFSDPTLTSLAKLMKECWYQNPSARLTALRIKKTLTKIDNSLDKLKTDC
Sequence of FGFR3 (UP) (P22607 23-806): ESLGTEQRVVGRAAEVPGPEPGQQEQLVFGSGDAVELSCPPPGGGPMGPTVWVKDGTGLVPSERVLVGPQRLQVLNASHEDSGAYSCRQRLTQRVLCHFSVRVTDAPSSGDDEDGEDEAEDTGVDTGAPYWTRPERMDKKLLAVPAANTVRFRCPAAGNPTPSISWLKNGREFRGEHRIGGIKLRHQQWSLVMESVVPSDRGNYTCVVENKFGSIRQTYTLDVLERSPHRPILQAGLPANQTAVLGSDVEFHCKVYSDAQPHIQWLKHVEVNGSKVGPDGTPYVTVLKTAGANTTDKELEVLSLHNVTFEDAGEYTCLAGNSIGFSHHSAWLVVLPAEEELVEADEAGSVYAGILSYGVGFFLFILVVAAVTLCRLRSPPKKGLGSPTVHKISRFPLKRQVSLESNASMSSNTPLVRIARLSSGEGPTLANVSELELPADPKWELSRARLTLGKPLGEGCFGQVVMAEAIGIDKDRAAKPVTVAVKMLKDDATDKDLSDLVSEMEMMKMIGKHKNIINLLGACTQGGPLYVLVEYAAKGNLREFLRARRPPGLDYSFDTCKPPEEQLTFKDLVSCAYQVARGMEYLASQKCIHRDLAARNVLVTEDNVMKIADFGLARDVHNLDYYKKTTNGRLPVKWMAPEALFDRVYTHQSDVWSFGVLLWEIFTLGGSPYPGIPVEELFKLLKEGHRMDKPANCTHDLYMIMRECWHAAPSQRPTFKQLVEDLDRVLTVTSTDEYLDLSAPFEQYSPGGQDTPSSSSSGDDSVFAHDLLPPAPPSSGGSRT
Sequence of FGFR1 (UP) (P11362 22-822): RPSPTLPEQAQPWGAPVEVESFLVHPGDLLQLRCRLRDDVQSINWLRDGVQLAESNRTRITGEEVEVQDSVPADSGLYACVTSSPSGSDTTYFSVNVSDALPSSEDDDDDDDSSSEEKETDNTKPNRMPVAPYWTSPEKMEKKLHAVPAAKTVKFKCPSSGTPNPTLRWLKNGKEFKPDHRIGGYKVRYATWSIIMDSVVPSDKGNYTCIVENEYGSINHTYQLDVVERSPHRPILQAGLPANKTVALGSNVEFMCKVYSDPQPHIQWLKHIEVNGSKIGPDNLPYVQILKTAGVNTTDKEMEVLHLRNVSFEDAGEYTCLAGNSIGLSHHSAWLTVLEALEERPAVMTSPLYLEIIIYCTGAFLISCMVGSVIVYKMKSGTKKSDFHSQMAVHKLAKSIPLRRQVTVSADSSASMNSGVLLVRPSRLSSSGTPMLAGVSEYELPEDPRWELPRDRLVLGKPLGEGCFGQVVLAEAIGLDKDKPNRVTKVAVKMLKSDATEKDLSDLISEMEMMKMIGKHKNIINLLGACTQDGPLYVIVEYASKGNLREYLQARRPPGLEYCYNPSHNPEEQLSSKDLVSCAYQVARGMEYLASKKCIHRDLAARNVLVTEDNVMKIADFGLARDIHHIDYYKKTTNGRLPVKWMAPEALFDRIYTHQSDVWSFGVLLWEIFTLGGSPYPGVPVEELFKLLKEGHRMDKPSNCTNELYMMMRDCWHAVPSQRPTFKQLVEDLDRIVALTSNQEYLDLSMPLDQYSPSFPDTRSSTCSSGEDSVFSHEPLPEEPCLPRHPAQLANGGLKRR
Sequence of ALK2 (aa 147-end) (Q04771 147-509): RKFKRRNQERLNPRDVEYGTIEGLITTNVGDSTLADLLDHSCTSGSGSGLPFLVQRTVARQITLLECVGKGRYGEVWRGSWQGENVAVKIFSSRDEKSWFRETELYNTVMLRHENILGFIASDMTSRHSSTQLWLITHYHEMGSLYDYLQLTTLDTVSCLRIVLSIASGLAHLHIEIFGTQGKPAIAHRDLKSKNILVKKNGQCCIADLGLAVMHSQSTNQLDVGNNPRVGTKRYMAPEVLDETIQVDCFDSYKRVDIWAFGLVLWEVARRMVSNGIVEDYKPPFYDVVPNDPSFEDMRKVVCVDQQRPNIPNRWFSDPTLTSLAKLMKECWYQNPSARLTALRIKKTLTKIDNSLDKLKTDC

Structure (SMILES)	IC50 (FGFR3 (UP); [1])	IC50 (ALK2)	IC50 (FGFR1 (UP); [2])	IC50 (ALK2 (aa 147-end); ALK2 100 μM IC50, 100 uM ATP)	IC50 (ALK2 (aa 147-end); ALK2 1 mM IC50, 1 mM ATP)	IC50 (ALK2 (aa 147-end); [3])	IC50 (FGFR2 (P); read-out: FGFR2 (P) IC50)	IC50 (FGFR3 (UP))	IC50 (ALK2; [4])	IC50 (FGFR1 (UP))	IC50 (ALK2 (aa 147-end); [5])	IC50 (FGFR2 (P); FGFR2 (P) IC50 (nM))	IC50 (RT112 cells)	IC50 (ALK2 (aa 147-end); ALK2 3 μM IC50, 3 uM ATP)
C[C@@H]1CN(c2ccc(-c3n[nH]c4cnc(N5[C@@H]6CC[C@H]5CN(c5ccc(C#N)cc5)C6)nc34)cn2)CCN1 [Example 15, 4-((1R,5S)-8-(3-(6-((R)-3-Methylpiperazin-1-yl)pyridin-3-yl)-1H-pyrazolo[4,3-d]pyrimidin-5-yl)-3,8-diazabicyclo[3.2.1]octan-3-yl)benzonitrile]	> 2 µM	0.5 to 2 µM	> 2 µM	0.1 to 0.5 µM	0.5 to 2 µM	< 0.1 µM	> 2000 nM							
C[C@@H]1CN(c2ccc(-c3n[nH]c4cnc(N5CCc6c(ncn6C)C5)nc34)cn2)CCN1 [Example 18, (R)-5-(1-Methyl-1,4,6,7-tetrahydro-5H-imidazo[4,5-c]pyridin-5-yl)-3-(6-(3-methylpiperazin-1-yl)pyridin-3-yl)-1H-pyrazolo[4,3-d]pyrimidine]					0.1 to 0.5 µM	< 0.1 µM		0.1 to 0.5 µM	0.1 to 0.5 µM	0.1 to 0.5 µM	< 0.1 µM	100 to 500 nM		
Cc1cnc2n1CCN(c1ncc3[nH]nc(-c4ccc(N5CCN[C@H](C)C5)nc4)c3n1)C2 [Example 19, (R)-5-(3-Methyl-5,6-dihydroimidazo[1,2-a]pyrazin-7(8H)-yl)-3-(6-(3-methylpiperazin-1-yl)pyridin-3-yl)-1H-pyrazolo[4,3-d]pyrimidine]					0.1 to 0.5 µM	< 0.1 µM		0.1 to 0.5 µM	0.1 to 0.5 µM	0.5 to 2 µM	< 0.1 µM	100 to 500 nM		
CCC1C(=O)N(C)CCN1c1ncc2[nH]nc(-c3cnn(C)c3)c2n1 (stereo not shown) [Example 39, 3-Ethyl-1-methyl-4-(3-(1-methyl-1H-pyrazol-4-yl)-1H-pyrazolo[4,3-d]pyrimidin-5-yl)piperazin-2-one]	< 0.1 µM						< 100 nM			0.1 to 0.5 µM			0.1 to 0.5 µM	
Cn1cc(-c2n[nH]c3cnc(N4CCc5ncccc5C4)nc23)cn1 [Example 40, 6-(3-(1-Methyl-1H-pyrazol-4-yl)-1H-pyrazolo[4,3-d]pyrimidin-5-yl)-5,6,7,8-tetrahydro-1,6-naphthyridine]	< 0.1 µM			0.5 to 2 µM						0.5 to 2 µM		100 to 500 nM	0.5 to 2 µM	0.5 to 2 µM
Cn1cc(-c2n[nH]c3cnc(N4CCn5cnc(C(F)(F)F)c5C4)nc23)cn1 [Example 41, 3-(1-Methyl-1H-pyrazol-4-yl)-5-(1-(trifluoromethyl)-5,6-dihydroimidazo[1,5-a]pyrazin-7(8H)-yl)-1H-pyrazolo[4,3-d]pyrimidine]	< 0.1 µM			0.5 to 2 µM						0.1 to 0.5 µM		100 to 500 nM	0.1 to 0.5 µM	0.5 to 2 µM
Cn1cc(-c2n[nH]c3cnc(N4CCc5ncsc5C4)nc23)cn1 [Example 42, 5-(3-(1-Methyl-1H-pyrazol-4-yl)-1H-pyrazolo[4,3-d]pyrimidin-5-yl)-4,5,6,7-tetrahydrothiazolo[5,4-c]pyridine]	< 0.1 µM									0.5 to 2 µM		100 to 500 nM	0.1 to 0.5 µM	
Cn1cc(-c2n[nH]c3cnc(N4CCc5cn[nH]c5C4)nc23)cn1 [Example 44, 3-(1-Methyl-1H-pyrazol-4-yl)-5-(1,4,5,7-tetrahydro-6H-pyrazolo[3,4-c]pyridin-6-yl)-1H-pyrazolo[4,3-d]pyrimidine]	< 0.1 µM			0.5 to 2 µM			< 100 nM			0.1 to 0.5 µM			0.5 to 2 µM	0.5 to 2 µM
CC1C(=O)N(CC(F)F)CCN1c1ncc2[nH]nc(-c3cnn(C)c3)c2n1 (stereo not shown) [Example 46, 1-(2,2-Difluoroethyl)-3-methyl-4-(3-(1-methyl-1H-pyrazol-4-yl)-1H-pyrazolo[4,3-d]pyrimidin-5-yl)piperazin-2-one]	< 0.1 µM						< 100 nM			0.1 to 0.5 µM			0.1 to 0.5 µM	
CC(C)N1CCN(c2ncc3[nH]nc(-c4cnn(C)c4)c3n2)C(C)C1=O (stereo not shown) [Example 47, 1-Isopropyl-3-methyl-4-(3-(1-methyl-1H-pyrazol-4-yl)-1H-pyrazolo[4,3-d]pyrimidin-5-yl)piperazin-2-one]	< 0.1 µM									0.5 to 2 µM		100 to 500 nM	0.5 to 2 µM	
Cn1cc(-c2n[nH]c3cnc(N4C5CCC4C(=O)N(CCF)C5)nc23)cn1 (stereo not shown) [Example 51, 3-(2-Fluoroethyl)-8-(3-(1-methyl-1H-pyrazol-4-yl)-1H-pyrazolo[4,3-d]pyrimidin-5-yl)-3,8-diazabicyclo[3.2.1]octan-2-one]	< 0.1 µM			0.5 to 2 µM						0.1 to 0.5 µM		100 to 500 nM	0.5 to 2 µM	0.1 to 0.5 µM
CN(C)C(=O)N1CCC(n2cc(-c3n[nH]c4cnc(N5C6CCC5C(=O)N(C)C6)nc34)cn2)CC1 (stereo not shown) [Example 56, N,N-Dimethyl-4-(4-(5-(3-methyl-2-oxo-3,8-diazabicyclo[3.2.1]octan-8-yl)-1H-pyrazolo[4,3-d]pyrimidin-3-yl)-1H-pyrazol-1-yl)piperidine-1-carboxamide]	< 0.1 µM						< 100 nM			0.1 to 0.5 µM			0.5 to 2 µM	
CN1CC2CCC(C1=O)N2c1ncc2[nH]nc(-c3cnn(-c4cccnc4)c3)c2n1 (stereo not shown) [Example 69, 3-Methyl-8-(3-(1-(pyridin-3-yl)-1H-pyrazol-4-yl)-1H-pyrazolo[4,3-d]pyrimidin-5-yl)-3,8-diazabicyclo[3.2.1]octan-2-one]	< 0.1 µM		< 0.1 µM				< 100 nM						0.1 to 0.5 µM	
CN1CC2CCC(C1=O)N2c1ncc2[nH]nc(-c3cnn(-c4cncc(C#N)c4)c3)c2n1 (stereo not shown) [Example 73, 5-(4-(5-(3-Methyl-2-oxo-3,8-diazabicyclo[3.2.1]octan-8-yl)-1H-pyrazolo[4,3-d]pyrimidin-3-yl)-1H-pyrazol-1-yl)nicotinonitrile]	< 0.1 µM						< 100 nM			0.1 to 0.5 µM			0.5 to 2 µM	
CN1CC2CCC(C1=O)N2c1ncc2[nH]nc(-c3cnn(-c4ccc(C#N)nc4)c3)c2n1 (stereo not shown) [Example 74, 5-(4-(5-(3-Methyl-2-oxo-3,8-diazabicyclo[3.2.1]octan-8-yl)-1H-pyrazolo[4,3-d]pyrimidin-3-yl)-1H-pyrazol-1-yl)picolinonitrile]	< 0.1 µM		< 0.1 µM				< 100 nM						0.1 to 0.5 µM	
Cc1cc(C#N)ccc1-n1cc(-c2n[nH]c3cnc(N4C5CCC4C(=O)N(C)C5)nc23)cn1 (stereo not shown) [Example 77, 3-Methyl-4-(4-(5-(3-methyl-2-oxo-3,8-diazabicyclo[3.2.1]octan-8-yl)-1H-pyrazolo[4,3-d]pyrimidin-3-yl)-1H-pyrazol-1-yl)benzonitrile]	< 0.1 µM									0.5 to 2 µM		100 to 500 nM	0.5 to 2 µM	
CN1CC2CCC(C1=O)N2c1ncc2[nH]nc(-c3cnn(-c4ccc(C#N)c(F)c4)c3)c2n1 (stereo not shown) [Example 78, 2-Fluoro-4-(4-(5-(3-methyl-2-oxo-3,8-diazabicyclo[3.2.1]octan-8-yl)-1H-pyrazolo[4,3-d]pyrimidin-3-yl)-1H-pyrazol-1-yl)benzonitrile]	< 0.1 µM						< 100 nM			0.1 to 0.5 µM			0.1 to 0.5 µM	
